Test results published in publication PMC11995724, “Antibiotic target discovery by integrated phenotypic and activity-based profiling of electrophilic fragments” (Cell chemical biology, 2025).
Structures can show the parent of a compound that is named as a salt.

Assay: in vitro
Conditions: human, hek293t cells

SMILES	viability at 48 h, 25 µM [%]
Cc1cccc(N2C(=O)C=CC2=O)c1C [10-H05, 1-(2,3-dimethylphenyl)-2,5-dihydro-1H-pyrrole-2,5-dione]	94.3
O=C(CCl)c1ccc(CC(=O)N2CCOCC2)s1 [10-H06, 2-chloro-1-{5-[2-(morpholin-4-yl)-2-oxoethyl]thiophen-2-yl}ethan-1-one]	71.7
COc1ccc(CCN2C(=O)C=CC2=O)cc1OC [10-H07, 1-[2-(3,4-dimethoxyphenyl)ethyl]-2,5-dihydro-1H-pyrrole-2,5-dione]	101
CSc1cc(C(=O)CCl)ccc1NC(C)=O [10-H08, N-[4-(2-chloroacetyl)-2-(methylsulfanyl)phenyl]acetamide]	8.39
Cc1cccc2[nH]cc(C(=O)CCl)c12 [10-H09, 2-chloro-1-(4-methyl-1H-indol-3-yl)ethan-1-one]	5.75
CC(C)n1ccnc1C(=O)CCl [10-H10, 2-chloro-1-[1-(propan-2-yl)-1H-imidazol-2-yl]ethan-1-one]	20.4
O=C(Nc1cc(F)ccc1F)N1CCSSCC1 [10-H11, N-(2,5-difluorophenyl)-1,2,5-dithiazepane-5-carboxamide]	94.9
CCCn1c(N)c(C(=O)CCl)c(=O)n(C)c1=O [10-H12, 6-amino-5-(2-chloroacetyl)-3-methyl-1-propyl-1,2,3,4-tetrahydropyrimidine-2,4-dione]	86.3
COc1cc([N+](=O)[O-])ccc1N1C(=O)C=CC1=O [10-H13, 1-(2-methoxy-4-nitrophenyl)-2,5-dihydro-1H-pyrrole-2,5-dione]	97.6
CCc1ccc(CC)c(C(=O)CCl)c1 [10-H14, 2-chloro-1-(2,5-diethylphenyl)ethan-1-one]	33.6
O=C1C=CC(=O)N1c1cc([N+](=O)[O-])ccc1Cl [10-H15, 1-(2-chloro-5-nitrophenyl)-2,5-dihydro-1H-pyrrole-2,5-dione]	126
Cc1ccc(NC(=O)N2CCN(C(=O)C=CCN(C)C)CC2)cc1 [10-H16, 4-[4-(dimethylamino)but-2-enoyl]-N-(4-methylphenyl)piperazine-1-carboxamide]	94.2
O=C(CCl)c1ccc2c(c1)-c1ccccc1C2 [10-H17, 2-chloro-1-(9H-fluoren-3-yl)ethan-1-one]	51.2
Cc1cc(C(=O)CCl)c(C)n1-c1ccc(Cl)cc1 [10-H18, 2-chloro-1-[1-(4-chlorophenyl)-2,5-dimethyl-1H-pyrrol-3-yl]ethan-1-one]	0.517
CS(=O)(=O)N1CCCc2cc(C(=O)CCl)ccc21 [10-H19, 2-chloro-1-(1-methanesulfonyl-1,2,3,4-tetrahydroquinolin-6-yl)ethan-1-one]	72
Cc1ccccc1-n1c(C)cc(C(=O)CCl)c1C [10-H20, 2-chloro-1-[2,5-dimethyl-1-(2-methylphenyl)-1H-pyrrol-3-yl]ethan-1-one]	0.349
COc1ccc(NC(=O)N2CCSSCC2)cc1 [10-H21, N-(4-methoxyphenyl)-1,2,5-dithiazepane-5-carboxamide]	103
COc1ccc(C(=O)C(C)Cl)cc1 (centres unmarked) [10-H22, 2-chloro-1-(4-methoxyphenyl)propan-1-one]	73.6
NC(=O)CCc1ccc(C(=O)CCl)cc1 [10-I03, 3-[4-(2-chloroacetyl)phenyl]propanamide]	4.69
Cc1cc(C(=O)CCl)c(C)n1-c1cc(Cl)cc(Cl)c1 [10-I04, 2-chloro-1-[1-(3,5-dichlorophenyl)-2,5-dimethyl-1H-pyrrol-3-yl]ethan-1-one]	0.227
NS(=O)(=O)c1cccc(N2C(=O)C=CC2=O)c1 [10-I05, 3-(2,5-dioxo-2,5-dihydro-1H-pyrrol-1-yl)benzene-1-sulfonamide]	93.4

SMILES	viability at 48 h, 25 µM [%]
Cc1cc(C(=O)CCl)c(C)c(C)c1C [10-I06, 2-chloro-1-(2,3,4,5-tetramethylphenyl)ethan-1-one]	0.728
CN(C)C(=O)c1csc(C(=O)CCl)c1 [10-I07, 5-(2-chloroacetyl)-N,N-dimethylthiophene-3-carboxamide]	56.6
Cc1cc(C(=O)CCl)c(C)n1C(c1ccccc1)c1ccccc1 [10-I08, 2-chloro-1-[1-(diphenylmethyl)-2,5-dimethyl-1H-pyrrol-3-yl]ethan-1-one]	1.32
O=C(CCl)c1ccncc1F [10-I09, 2-chloro-1-(3-fluoropyridin-4-yl)ethan-1-one hydrochloride]	85
CC(=O)NCc1ccc(C(=O)CCl)o1 [10-I10, N-{[5-(2-chloroacetyl)furan-2-yl]methyl}acetamide]	86.8
COC(=O)c1cccc(C(=O)CCl)c1 [10-I11, methyl 3-(2-chloroacetyl)benzoate]	1.87
COc1ccc(-n2c(C)cc(C(=O)CCl)c2C)cc1 [10-I12, 2-chloro-1-[1-(4-methoxyphenyl)-2,5-dimethyl-1H-pyrrol-3-yl]ethan-1-one]	0.472
CS(=O)(=O)c1ccc(C(=O)CCl)cc1 [10-I13, 2-chloro-1-(4-methanesulfonylphenyl)ethan-1-one]	65.1
O=C(CCl)c1ccc2[nH]c(=O)[nH]c2c1 [10-I14, 5-(2-chloroacetyl)-2,3-dihydro-1H-1,3-benzodiazol-2-one]	1.71
O=C(CCl)Cc1cc(Cl)cc(Cl)c1 [10-I15, 1-chloro-3-(3,5-dichlorophenyl)propan-2-one]	3.97
Cn1c(N)c(C(=O)CCl)c(=O)[nH]c1=O [10-I16, 6-amino-5-(2-chloroacetyl)-1-methyl-1,2,3,4-tetrahydropyrimidine-2,4-dione]	104
CC(C)c1ccc(CC(=O)CCl)cc1 [10-I17, 1-chloro-3-[4-(propan-2-yl)phenyl]propan-2-one]	73.5
O=C(CCl)c1ccc(F)cc1F [10-I18, 2-chloro-1-(2,4-difluorophenyl)ethan-1-one]	77.2
Cc1cccc(CC(=O)CCl)c1 [10-I19, 1-chloro-3-(3-methylphenyl)propan-2-one]	68.3
CC(=O)N1c2ccc(C(=O)CCl)cc2CC1C (centres unmarked) [10-I20, 1-(1-acetyl-2-methyl-2,3-dihydro-1H-indol-5-yl)-2-chloroethan-1-one]	3.53
CCn1cc(N2C(=O)C=CC2=O)cn1 [10-I21, 1-(1-ethyl-1H-pyrazol-4-yl)-2,5-dihydro-1H-pyrrole-2,5-dione]	38.5
CC(C)C(C(=O)O)N1C(=O)C=CC1=O (centres unmarked) [10-I22, 2-(2,5-dioxo-2,5-dihydro-1H-pyrrol-1-yl)-3-methylbutanoic acid]	106
O=C(CCl)c1ccccn1 [10-J03, 2-chloro-1-(pyridin-2-yl)ethan-1-one]	94.4
N#CC(C(=O)CCl)=C1Nc2ccccc2S1 [10-J04, 4-chloro-2-(2,3-dihydro-1,3-benzothiazol-2-ylidene)-3-oxobutanenitrile]	0.855
Cc1nn(CCC(=O)N2CCSSCC2)c(C)c1[N+](=O)[O-] [10-J05, 3-(3,5-dimethyl-4-nitro-1H-pyrazol-1-yl)-1-(1,2,5-dithiazepan-5-yl)propan-1-one]	96.8
